This is an account of results in patent US20190010167A1, “INHIBITORS OF THE MENIN-MLL INTERACTION” (Vitae Pharmaceuticals, Inc., priority 2015, published 2019).

Experiment [1] addresses T1, menin/MLL (Gal4-Menin and MLL1-46-VP16) in HEK293 cells (Homo sapiens, UniProt O00255).
T1 construct: expressed in transfected cells; host or cells: HEK293 (ATCC)
Kind of experiment: Mammalian cellular two-hybrid assay in HEK293 cells (Assay 2, cell assay). The conditions noted are these: Gal4-Menin/MLL1-46-VP16 two-hybrid, NanoLuc luciferase reporter, 16-18 h. Type of experiment: cell-based. The method, then:
Potencies of inhibitor compounds against menin/MLL were tested in a mammalian cellular two-hybrid assay system. HEK293 cells (American Type Culture Collection (ATCC); Manassas, Va.) were co-transfected with three plasmids: one encoding Gal4-Menin (200 ng per 10^6 cells), another encoding MLL1-46-VP16 (100 ng per 10^6 cells), and a reporter plasmid pNL3.3-4×UAS (500 ng per 10^6 cells) encoding secreted NanoLuc® luciferase (Promega) with the upstream 4×UAS repeats for Gal4 binding. Transfection was performed in Opti-MEM® media using Lipofectamine® LTX with Plus™ Reagent (ThermoFisher Scientific) according to manufacturer's protocol. Cells were incubated with transfection reagents at 37° C. 5% CO2 for 5-6 h, harvested by trypsinization and centrifugation at 300×g for 5 min and resuspended in Gibco® DMEM media (phenol red-free, no antibiotics) containing 10% delipidated fetal bovine serum (FBS) (ThermoFisher Scientific). Concentration of cells in the media was adjusted to 3.5×10^5 cells/ml, and 100 μl of the cell suspension was dispensed into each well of 96-well Costar™ black clear bottom cell culture plates (Fisher Scientific). Tested compounds were added as 100 μL of 2× solutions in the media. Final concentration of DMSO was 0.1% in all wells. The cells were incubated with tested compounds at 37° C. 5% CO2 for 16-18 h. At the end of the incubation, 40 μL of the conditioned media from each well was transferred into each well of 96-well Costar™ black half-area plates (Fisher Scientific), to which 40 μl of 2× reconstituted NanoGlo® luciferase assay reagent (Promega) was added and thoroughly mixed on a microshaker for 2-3 min. Remaining media in the culture plates was removed by emptying the wells and blotting the plates on filter paper. The cells were lysed with 1× CellTiter-Glo® Luminescent Cell Viability Assay reagent (Promega) for assessing toxicity of the tested compounds. Both, Nano-Glo® and CellTiter-Glo® luminescence intensities were measured on EnVision® multilabel plate reader (PerkinElmer). Percent inhibition values were calculated based on Nano-Glo® luciferase activity observed with the tested compounds vs. DMSO control and commercially available menin inhibitor MI-2-2 (4-(4-(5,5-Dimethyl-4,5-dihydrothiazol-2-yl)piperazin-1-yl)-6-(2,2,2-trifluoroethyl)thieno[2,3-d]pyrimidine) (EMD Millipore, Cat. No. 444825) incubated with cells at 5 μM. These percent inhibition values were regressed against compound concentrations in the assay using non-linear 4-parameter logit curve fitting (XLFit, IDBS). Half maximal inhibitory concentrations (IC50) were calculated as the parameters of the fit corresponding to the inflection points on semi-logarithmic dose-response curves.
(A reporter such as luciferase makes a cellular process visible.)

For experiment [2], the target named is T2, wild-type menin / MLL-AF9 fusion protein (Homo sapiens, UniProt O00255).
T2 construct: made in house; host or cells: E. coli (menin); HEK293 cleared lysate (MLL-AF9-FLAG)
T2 sequence (O00255 1-610): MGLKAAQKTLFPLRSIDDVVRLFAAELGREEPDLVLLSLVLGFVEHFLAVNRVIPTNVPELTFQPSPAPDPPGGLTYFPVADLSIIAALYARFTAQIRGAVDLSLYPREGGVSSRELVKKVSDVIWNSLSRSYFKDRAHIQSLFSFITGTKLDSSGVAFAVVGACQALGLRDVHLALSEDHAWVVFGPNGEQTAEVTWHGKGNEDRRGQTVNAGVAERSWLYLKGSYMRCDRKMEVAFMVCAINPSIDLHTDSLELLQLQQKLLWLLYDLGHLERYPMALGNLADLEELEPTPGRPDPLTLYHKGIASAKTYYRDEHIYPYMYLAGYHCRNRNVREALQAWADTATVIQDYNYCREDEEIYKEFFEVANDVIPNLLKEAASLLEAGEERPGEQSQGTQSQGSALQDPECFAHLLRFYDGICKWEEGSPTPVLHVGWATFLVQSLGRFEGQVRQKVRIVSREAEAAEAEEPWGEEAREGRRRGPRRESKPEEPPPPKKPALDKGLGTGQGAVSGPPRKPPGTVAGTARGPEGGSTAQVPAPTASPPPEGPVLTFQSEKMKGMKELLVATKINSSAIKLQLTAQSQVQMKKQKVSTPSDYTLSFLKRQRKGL
The experiment in a line: AlphaLISA menin/MLL binding assay, wild-type menin (Assay 1). The conditions noted are these: biotinylated wild-type menin 5 nM, MLL-AF9-FLAG lysate. In outline: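 Biotinylated wild-type or mutated menin (5 nM, E. coli-expressed) was preincubated 30 min at RT with compound and HEK293 lysate containing MLL1-1,396–AF9 1-92–FLAG. Buffer was 50 mM Tris-HCl pH 7.4, 5% DMSO, 50 mM NaCl, 0.01% BSA, 1 mM DTT. Anti-FLAG acceptor and streptavidin donor beads (10 μg/mL each) were then added for 60 min. IC50 came from a four-parameter fit of the Alpha signal inhibition.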

T1 sequence (P04386 1-147 partner limits assumed, species assumed, one chain of several): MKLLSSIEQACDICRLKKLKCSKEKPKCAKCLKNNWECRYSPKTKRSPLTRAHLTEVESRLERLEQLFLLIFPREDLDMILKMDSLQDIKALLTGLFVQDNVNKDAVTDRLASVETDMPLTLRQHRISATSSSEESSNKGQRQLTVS

By IC50 is commonly meant the concentration that inhibits the measured activity by half. High values mean weaker potency, low ones greater potency. Turning to `FC(F)(F)Cc1cc2c(N3CCC4(CCN(Cc5ccccc5)C4)C3)ncnc2s1` (stereo not drawn) [Example 43, 4-(7-benzyl-2,7-diazaspiro[4.4]nonan-2-yl)-6-(2,2,2-trifluoroethyl)thieno[2,3-d]pyrimidine], the IC50 in experiment [1] was 100 to 1000 nM; in experiment [2], below 100 nM.

As to `CC(=O)Nc1ccc(CN2CCC3(CCN(c4ncnc5sc(CC(F)(F)F)cc45)C3)C2)c(Cl)c1` (stereo not drawn) [Example 44, N-(3-chloro-4-((7-(6-(2,2,2-trifluoroethyl)thieno[2,3-d]pyrimidin-4-yl)-2,7-diazaspiro[4.4]nonan-2-yl)methyl)phenyl)acetamide], the IC50 in experiment [1] was 100 to 1000 nM; in experiment [2] it was below 100 nM.

Take `CC(=O)Nc1ccc(CN2CCC3(CCN(c4ncnc5sc(CC(F)(F)F)cc45)C3)C2)c(F)c1` (stereo not drawn) [Example 45, N-(3-fluoro-4-((7-(6-(2,2,2-trifluoroethyl)thieno[2,3-d]pyrimidin-4-yl)-2,7-diazaspiro[4.4]nonan-2-yl)methyl)phenyl)acetamide]: the IC50 in experiment [1] is 100 to 1000 nM; in experiment [2], below 100 nM.

As to `COC(=O)N[C@H]1CC[C@H](CN2CCC3(CCN(c4ncnc5sc(CC(F)(F)F)cc45)C3)C2)CC1` (stereo partly drawn) [Example 46, Methyl ((1r,4r)-4-((7-(6-(2,2,2-trifluoroethyl)thieno[2,3-d]pyrimidin-4-yl)-2,7-diazaspiro[4.4]nonan-2-yl)methyl)cyclohexyl)carbamate], the IC50 in experiment [1] was 100 to 1000 nM; in experiment [2], below 100 nM.

Consider `CS(=O)(=O)N[C@H]1CC[C@H](CN2CCC3(CCN(c4ncnc5sc(CC(F)(F)F)cc45)C3)C2)CC1` (stereo partly drawn) [Example 48, N-((1r,4r)-4-((7-(6-(2,2,2-trifluoroethyl)thieno[2,3-d]pyrimidin-4-yl)-2,7-diazaspiro[4.4]nonan-2-yl)methyl)cyclohexyl)methanesulfonamide], for which the values for the IC50 in experiment [1] and in experiment [2] were 100 to 1000 nM and below 100 nM, respectively.

As to `CS(=O)(=O)N[C@H]1CC[C@@H](CN2CCC3(CCN(c4ncnc5sc(CC(F)(F)F)cc45)C3)C2)CC1` (stereo partly drawn) [Example 49, N-((1s,4s)-4-((7-(6-(2,2,2-trifluoroethyl)thieno[2,3-d]pyrimidin-4-yl)-2,7-diazaspiro[4.4]nonan-2-yl)methyl)cyclohexyl)methanesulfonamide], the IC50 was 100 to 1000 nM in experiment [1] and below 100 nM in experiment [2].

Take `CC(=O)Nc1cccc(CN2CCC3(CCN(c4ncnc5sc(CC(F)(F)F)cc45)C3)C2)c1` (stereo not drawn) [Example 52, N-(3-((7-(6-(2,2,2-trifluoroethyl)thieno[2,3-d]pyrimidin-4-yl)-2,7-diazaspiro[4.4]nonan-2-yl)methyl)phenyl)acetamide]: the IC50 in experiment [1] is 100 to 1000 nM; in experiment [2] it was below 100 nM.

For the compound `Cc1cc(NS(C)(=O)=O)ccc1CN1CCC2(CCN(c3ncnc4sc(CC(F)(F)F)cc34)C2)C1` (stereo not drawn) [Example 54, N-(3-methyl-4-((7-(6-(2,2,2-trifluoroethyl)thieno[2,3-d]pyrimidin-4-yl)-2,7-diazaspiro[4.4]nonan-2-yl)methyl)phenyl)methanesulfonamide], the IC50 in experiment [1] was 100 to 1000 nM; in experiment [2] it was below 100 nM.

Regarding `CC(C)(N)C(=O)N1CCC2(CCN(c3ncnc4sc(CC(F)(F)F)cc34)C2)C1` (stereo not drawn) [Example 58, 2-Amino-2-methyl-1-(7-(6-(2,2,2-trifluoroethyl)thieno[2,3-d]pyrimidin-4-yl)-2,7-diazaspiro[4.4]nonan-2-yl)propan-1-one], the half-maximal inhibitory concentration (IC50) in experiment [1] and in experiment [2] was 100 to 1000 nM each time.

With `CS(=O)(=O)Cc1ccc(CC(=O)N2CC3(C2)CN(c2ncnc4sc(CC(F)(F)F)cc24)C3)cc1` [Example 61, 2-(4-((methylsulfonyl)methyl)phenyl)-1-(6-(6-(2,2,2-trifluoroethyl)thieno[2,3-d]pyrimidin-4-yl)-2,6-diazaspiro[3.3]heptan-2-yl)ethan-1-one], the IC50 in experiment [1] was at least 1000 nM; in experiment [2], 100 to 1000 nM.

As to `FC(F)(F)Cc1cc2c(N3CC4(CN(CC5CCCC(F)(F)C5)C4)C3)ncnc2s1` (stereo not drawn) [Example 63, 4-(6-((3,3-difluorocyclohexyl)methyl)-2,6-diazaspiro[3.3]heptan-2-yl)-6-(2,2,2-trifluoroethyl)thieno[2,3-d]pyrimidine], the concentration for half-maximal inhibition (IC50) in experiment [1] was 100 to 1000 nM; in experiment [2], below 100 nM.

`CC1(C)CCCC(CN2CC3(C2)CN(c2ncnc4sc(CC(F)(F)F)cc24)C3)C1` (stereo not drawn) [Example 65, 4-(6-((3,3-dimethylcyclohexyl)methyl)-2,6-diazaspiro[3.3]heptan-2-yl)-6-(2,2,2-trifluoroethyl)thieno[2,3-d]pyrimidine]: the IC50 is 100 to 1000 nM in experiment [1] and below 100 nM in experiment [2].

For `FC(F)(F)Cc1cc2c(N3CC4(CN(CC5CCOCC5)C4)C3)ncnc2s1` [Example 66, 4-(6-((tetrahydro-2H-pyran-4-yl)methyl)-2,6-diazaspiro[3.3]heptan-2-yl)-6-(2,2,2-trifluoroethyl)thieno[2,3-d]pyrimidine], the IC50 in experiment [1] and in experiment [2] was 100 to 1000 nM throughout.

For the compound `FC(F)(F)Cc1cc2c(N3CC4(CN(CC5CCCC5)C4)C3)ncnc2s1` [Example 68, 4-(6-(cyclopentylmethyl)-2,6-diazaspiro[3.3]heptan-2-yl)-6-(2,2,2-trifluoroethyl)thieno[2,3-d]pyrimidine], the IC50 is 100 to 1000 nM in experiment [1] and below 100 nM in experiment [2].

As for `FC(F)(F)Cc1cc2c(N3CC4(CN(CC5CCCCC5)C4)C3)ncnc2s1` [Example 69, 4-(6-(cyclohexylmethyl)-2,6-diazaspiro[3.3]heptan-2-yl)-6-(2,2,2-trifluoroethyl)thieno[2,3-d]pyrimidine], the IC50 is 100 to 1000 nM in experiment [1] and below 100 nM in experiment [2].

In the case of `COC1CCC(CN2CC3(C2)CN(c2ncnc4sc(CC(F)(F)F)cc24)C3)CC1` (stereo not drawn) [Example 75, 4-(6-((4-methoxycyclohexyl)methyl)-2,6-diazaspiro[3.3]heptan-2-yl)-6-(2,2,2-trifluoroethyl)thieno[2,3-d]pyrimidine], the IC50 in experiment [1] and in experiment [2] was 100 to 1000 nM each time.

On to `OC1CCC(CN2CC3(C2)CN(c2ncnc4sc(CC(F)(F)F)cc24)C3)CC1` (stereo not drawn) [Example 76, 4-((6-(6-(2,2,2-trifluoroethyl)thieno[2,3-d]pyrimidin-4-yl)-2,6-diazaspiro[3.3]heptan-2-yl)methyl)cyclohexan-1-ol], for which the concentration for half-maximal inhibition (IC50) is 100 to 1000 nM in experiment [1] and below 100 nM in experiment [2].

In the case of `Cc1c(CN2CCC3(CCN(c4ncnc5ccc(CC(F)(F)F)cc45)C3)C2)ccc2[nH]c(C#N)cc12` (stereo not drawn) [Example 90, 4-methyl-5-((7-(6-(2,2,2-trifluoroethyl)quinazolin-4-yl)-2,7-diazaspiro[4.4]nonan-2-yl)methyl)-1H-indole-2-carbonitrile], the figures for the IC50 in experiment [1] and in experiment [2] were 100 to 1000 nM and below 100 nM, respectively.
